Reference: patent publication US5409948A (priority 1992, dated 1995)
“Also recorded” adds a separate entry of the source.

Columns and labels:
cholinesterase (ChE) = settings: cited from earlier work
[1] = tested on: brain and plasma AChE and BChE; settings: cited from earlier work
[2] = tested on: scopolamine-induced impairment in learning performance of rats; parameters: species or system male Fischer-344 rats; settings: rat, in vivo
plasma AChE = assay type: in vivo, Fischer-344 rats
neuromuscular AChR = settings: cited from earlier work
[3] = tested on: patients with Alzheimer's disease; settings: human, in vivo; cited from earlier work
[4] = in vivo; cited from earlier work
[5] = tested on: performance deficits induced by scopolamine; settings: in vivo; cited from earlier work
acetylcholine in brain = settings: in vivo; cited from earlier work
cholinesterase = settings: cited from earlier work
[6] = tested on: memory consolidation in mice; settings: mouse, in vivo; cited from earlier work
[7] = tested on: scopolamine-induced impairment in learning performance of rats; settings: rat, in vivo; cited from earlier work
[8] = biological target: human acetylcholinesterase (AChE); settings: read-out: IC50 against human AChE; cited from earlier work
[9] = rat, in vivo
[10] = in vivo
[11] = biological target: human butyrylcholinesterase (BChE); settings: read-out: IC50 against human BChE; cited from earlier work
[12] = tested on: human acetylcholinesterase (AChE); assay type: biochemical

## CNC(=O)Oc1ccc2c(c1)[C@@]1(C)CCN(C)[C@H]1N2C [(+)-physostigmine]
Cholinesterase (ChE)
  inhibition of cholinesterase: negligible inhibition; also recorded: negligible ChE inhibitory activity

## CNC(=O)Oc1ccc2c(c1)[C@]1(C)CCN(C)[C@@H]1N2C [Physostigmine]
[1]
  IC50 of brain vs plasma AChE and BChE: similar
[2]
  activity in 14-unit T-maze model, in words: no significant activity in this model
Plasma AChE; rat, in vivo
  AChE inhibition at 60 minutes: negligible
  AChE inhibition, immediate: approximately 50%
Neuromuscular AChR
  properties at the neuromuscular AChR: blocking properties as well as agonist properties
[3]
  pharmacological half life in patients: short pharmacological half life
[4]
  LD50: 0.6 mg/kg

## CN1[C@@H]2C[C@@H](OC(=O)[C@H](CO)c3ccccc3)C[C@H]1[C@@H]1O[C@@H]12 [SCOP, reference compound]
[2]
  all five measures of the maze task: significantly worse performance in all five measures of the maze task

## Nc1c2c(nc3ccccc13)CCCC2 [THA, tetrahydroaminoacridine]
[3]
  toxicity in Alzheimer's patients: causes toxicity

## CCCCCCCNC(=O)Oc1ccc2c(c1)[C@]1(C)CCN(C)[C@@H]1N2C [heptyl-Phy]
[5]
  performance deficits induced by scopolamine: reverses the performance deficits induced by scopolamine
Acetylcholine in brain
  increases in acetylcholine in brain vs parent compound: more persistent increases in acetylcholine in brain
[2]
  activity in 14-unit T-maze model, in words: inferior to phenserine
  mean errors per trial at each block of three trials: reduced error performance compared to the SCOP group
  mean errors per trial for 15 trials: significantly (P<0.05) better performance than the SCOP group
  ratio of alternation errors per trial to opportunities: no significant effect
cholinesterase
  inhibitory action on cholinesterase vs parent compound: longer inhibitory action on cholinesterase
[4]
  toxicity vs parent compound: less toxicity than the parent compound
[6]
  memory consolidation: facilitates memory consolidation in mice
[7]
  alternation error performance: lack of improvement
  learning impairment of SCOP-treated rats: failed to ameliorate the learning impairment
  number of errors: significantly reduced the number of errors
  scopolamine-induced learning impairment of rats: attenuated the scopolamine-induced learning impairment

## CN1CC[C@@]2(C)c3cc(OC(=O)Nc4ccccc4)ccc3N(C)[C@@H]12 [phenserine, (-)-N-phenylcarbamoyl eseroline]
[8]
  IC50: 24 ± 6 nM
[2]
  SCOP-induced learning impairment: significantly attenuated the SCOP-induced learning impairment
  alternation error ratio: only 10.0 and 1.5 mg/kg doses of phenserine improved alternation error performance at blocks 4 and 5 and block 5, respectively; also recorded: only the 10.0 and 1.5 mg/kg doses of phenserine reduced the ratio significantly at blocks 4 and 5 and block 5, respectively
  error performance: all but the 7.5 mg/kg dose of phenserine significantly ameliorated error performance
  error performance at blocks 4 and 5: improved error performance at maze training blocks 4 and 5 except the 7.5 mg/kg dose
  number of errors at block 4: reduced significantly at block 4 by all but the 7.5 mg/kg dose
  runtime: all but the 7.5 mg/kg dose of phenserine significantly ameliorated error performance, runtime
  shock duration: all but the 7.5 mg/kg dose of phenserine significantly ameliorated error performance, runtime, shock frequency and shock duration
  shock frequency: all but the 7.5 mg/kg dose of phenserine significantly ameliorated error performance, runtime, shock frequency
  therapeutic window: wide therapeutic window
[2]; ip
  time after i.p. administration at which improvement of learning performance was observed: more than 1 hour
[9]
  activity of animals: seemed less active than at other doses
  behavior of animals: very aggressive and difficult to handle
  peripheral cholinergic effects, such as salivation and diarrhea: not noticed at any doses tested
  side effects: chewing, grooming, and wet dog shakes
  toxic side effects without peripheral cholinergic inhibitors: large doses can be administered without toxic side effects
Plasma AChE; at 8 hours
  AChE inhibition at 8 hours: 43.0%
Plasma AChE; rat, in vivo
  AChE inhibition and its duration, in words: long, steady state inhibition of AChE at very low and non-toxic doses
  AChE inhibition compared to physostigmine: dramatically higher inhibition of AChE at a lower dose
  duration of high and relatively constant AChE inhibition: more than 8 hours
  maximum AChE inhibition: 73.5%
[10]
  LD50 (in words): substantially higher than that of physostigmine itself
  central tremor: a slight central tremor is evident
  toxicity or deaths: have not been associated with toxicity or deaths
[11]
  IC50: 1300 ± 8.5 nM
[12]
  selectivity of anticholinesterase action (AChE vs BChE): high selectivity of anticholinesterase action
